The values that follow come from patent publication US20230134843A1, “TREATMENT OF STEM CELL DEFICIENCY” (OSPEDALE SAN RAFFAELE S.R.L., priority 2020, published 2023).

Entries after “also recorded” stand apart in the source; their conditions may differ.

One assay concerns the target T1, NK1R (Mus musculus, UniProt P30548).
T1 construct: NK1R is expressed by both corneal epithelial and stem cell-like cells; from tissue; host or cells: cornea / ocular surface of live C57BL6/N mice (topical dosing in vivo)
In words: Epithelial corneal damage by corneal fluorescein staining, acute ocular GVHD mouse model. In kind it is in vivo, mice. The settings on record: Fosaprepitant 10 mg/mL topically six times a day (BM+T+Fosa); from day 14, p<0.05. As to the method:
10-week-old male BALB/C and C57BL/6N mice (Charles River Laboratory, Lecco, Italy) were used for all the experiments (n=5/each group). All mice were free from ocular surface disease at baseline. The housing conditions were controlled (temperature 22° C., light from 07:00-19:00, humidity 50%-60%), and fresh food and water were freely available. The animals were monitored 3 times per week for 28 days post-transplantation for in vivo slit-lamp microscopy imaging, ocular surface score and systemic GVHD score (FIG. 11A). Carbon dioxide inhalation and subsequent cervical dislocation were applied to euthanize the animals. All the experiments were approved by the Animal Care and Use Committee of the IRCCS San Raffaele Scientific Institute, in accordance with the ARVO Statement for the Use of Animals in Ophthalmic and Vision Research.
Allogenic BMT was conducted using the C57BL/6N and BALB/c mice as transplant donors and recipients, respectively. […]
Clinical examination was performed to evaluate the ocular disease progression. […] Tear production was quantified with phenol red thread test (Zone-Quick; Lacrimedics, Eastsound, Wash., USA). […] The length of the moistened thread was measured in both eyes and the average was used as lacrimal tear volume for comparative analysis.

The subject of the next assay is mTOR pathway. Put plainly: Western blot of P70S6 and pP70S6 in corneal epithelium, disepithelization model (Example 1). It counts as in vivo, mice. As to the method: Eight-week-old C57BL6/N (Charles River, Calco, Italy) (WT mice, n=8) and B6.Cg-Tac1tm1Bbm/J (Jackson Laboratories, Bar Harbor, Me., USA) (TAC1-KO mice, n=8) male mice were used in all experiments. Each animal was anesthetized with intraperitoneal injection of tribromoethanol (250 mg/kg) and a topical anesthetic was applied to their ocular surface prior to the surgical procedure. Disepithelization was performed based on the model previously described, using a blunt spatula to scrap the entire corneal epithelium from limbus to limbus. After wounding, eyes were treated with ophthalmic moxifloxacin 1 time/day for 1 week to […]. Fourteen days after disepithelization mice were euthanized using carbon dioxide inhalation and subsequent cervical dislocation. Corneas were collected for immunostaining and western blot analysis. All experimental protocols were approved by the Animal Care and Use Committee of the Istituto di Ricovero e cura a Carattere Scientifico San Raffaele Scientific Institute, in accordance with the ARVO Statement for the Use of Animals in Ophthalmic and Vision Research.
To evaluate the pharmacological inhibition of Substance P, an additional group of mice (WT-FOSA, n=6) received Fosaprepitant 10 mg/mL (IVEMEND, Merck Sharp & Dohme Ltd., Hoddes-don, UK) dissolved in a total volume of 10 μL phosphate-buffered saline (PBS, Sigma-Aldrich, St. Louis, Mo., USA) or 10 μL of vehicle as control, topically four times a day in both eyes for 14 days. The treatments started 1 day after corneal dispepithelization.
For Western Blot analysis, corneal epithelium was isolated after 30 minutes of EDTA treatment (Sigma-Aldrich Corp., St. Louis, Mo., USA) at 37° C. […] Bands were quantified using Image Lab™ software (Version 6.0.1, Bio-Rad Laboratories, Hercules, Calif., USA).
The expression of p70 S6 Kinase (P70S6), phospho-p70 S6 Kinase (pP70S6), and phospho-histone 2-AX (γH2AX) was evaluated by Western Blot, as previously described in section 2.9. […] Bands were quantified using Image J software (National Institutes of Health, Bethesda, Md., USA).

T1 sequence (P30548 whole entry): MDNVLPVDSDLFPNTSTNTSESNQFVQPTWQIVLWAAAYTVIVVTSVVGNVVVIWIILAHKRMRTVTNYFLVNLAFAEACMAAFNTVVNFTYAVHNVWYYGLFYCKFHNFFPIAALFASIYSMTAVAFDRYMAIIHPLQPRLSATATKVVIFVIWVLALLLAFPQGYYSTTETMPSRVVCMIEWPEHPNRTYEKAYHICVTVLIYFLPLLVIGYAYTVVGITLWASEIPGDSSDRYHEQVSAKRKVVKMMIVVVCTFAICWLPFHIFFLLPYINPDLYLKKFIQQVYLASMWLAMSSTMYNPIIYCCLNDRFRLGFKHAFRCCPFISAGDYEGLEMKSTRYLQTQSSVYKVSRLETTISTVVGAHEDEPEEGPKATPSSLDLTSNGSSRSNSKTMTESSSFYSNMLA

For the compound `C[C@@H](O[C@H]1OCCN(Cc2nc(=O)n(P(=O)(O)O)[nH]2)[C@H]1c1ccc(F)cc1)c1cc(C(F)(F)F)cc(C(F)(F)F)c1` [Fosaprepitant, [3-{[(2R,3S)-2-[(1R)-1-[3,5-bis(trifluoromethyl)phenyl]ethoxy]-3-(4-fluorophenyl)morpholin-4-yl]methyl}-5-oxo-2H-1,2,4-triazol-1-yl]phosphonic acid], at NK1R, the “corneal fluorescein staining compared to BM+T mice” value was “reduction; also recorded: significantly reduced”. The “pP70S6 expression compared to WT (in words)” value with mTOR pathway (Fosaprepitant 10 mg/mL (WT-FOSA), western blot) is reported as “significant decrease”. The “ratio between pP70S6 and P70S6 expression (mTOR pathway activation) compared to WT” value in the assay with mTOR pathway (Fosaprepitant 10 mg/mL topically four times a day for 14 days (WT-FOSA)) is on record as “significant decrease”. For the same compound, the “decrease in pP70S6 expression compared to WT” value in the assay with mTOR pathway (Fosaprepitant 10 mg/mL topically four times a day for 14 days (WT-FOSA), p<0.05) is given as 38%.
